According to patent US20260242371A1, “LIPID PRODRUGS OF BROM[…] USES THEREOF” (priority 2023, published 2026):

Columns and labels:
[1] = Metabolism identification (MetID) assay in human hepatocytes; details: 10 μM bromolysergide, 3 hours, 37 degrees Celsius
[2] = Metabolism identification (MetID) assay in human liver microsomes S9 fraction; details: 10 μM bromolysergide, human liver microsomes S9 1 mg/mL, NADPH, one hour, 37° C.
[3] = Metabolism identification (MetID) assay in rat hepatocytes; details: 10 μM bromolysergide, 3 hours, 37 degrees Celsius
[4] = Pharmacokinetics of 2-bromo-LSD prodrugs in rats; details: male, Sprague-Dawley, rat, plasma, iv
[5] = patients given up to 22 mg; Schneckloth, R., et al., Circulation 1957; cited from earlier work
[6] = Pharmacokinetics of 2-bromo-LSD prodrugs in non-human primates; details: cynomolgus monkey, plasma; for AUC(0-t) / Cmax: iv
[7] = target: 5-HT2B receptor (Homo sapiens, UniProt P41595); details: cited from earlier work
[8] = target: 5-HT2A receptor (Homo sapiens, UniProt P28223); details: Lewis, V. et al, Cell Reports 2023; cited from earlier work
Sequence of 5-HT2A receptor (P28223 whole entry): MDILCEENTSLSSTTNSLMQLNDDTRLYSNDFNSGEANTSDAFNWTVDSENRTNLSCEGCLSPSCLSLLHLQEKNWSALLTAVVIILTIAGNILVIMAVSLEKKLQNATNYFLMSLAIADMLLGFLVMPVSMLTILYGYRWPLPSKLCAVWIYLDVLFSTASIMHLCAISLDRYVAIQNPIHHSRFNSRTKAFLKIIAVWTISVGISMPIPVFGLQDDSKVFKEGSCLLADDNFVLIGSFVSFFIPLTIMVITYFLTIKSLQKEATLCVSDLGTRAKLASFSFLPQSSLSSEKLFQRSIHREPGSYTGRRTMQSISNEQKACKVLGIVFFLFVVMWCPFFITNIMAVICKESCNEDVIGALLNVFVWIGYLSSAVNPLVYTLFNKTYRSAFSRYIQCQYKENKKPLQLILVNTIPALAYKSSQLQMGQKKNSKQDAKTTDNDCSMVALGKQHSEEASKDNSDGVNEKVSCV

Sequence of 5-HT2B receptor (P41595 whole entry): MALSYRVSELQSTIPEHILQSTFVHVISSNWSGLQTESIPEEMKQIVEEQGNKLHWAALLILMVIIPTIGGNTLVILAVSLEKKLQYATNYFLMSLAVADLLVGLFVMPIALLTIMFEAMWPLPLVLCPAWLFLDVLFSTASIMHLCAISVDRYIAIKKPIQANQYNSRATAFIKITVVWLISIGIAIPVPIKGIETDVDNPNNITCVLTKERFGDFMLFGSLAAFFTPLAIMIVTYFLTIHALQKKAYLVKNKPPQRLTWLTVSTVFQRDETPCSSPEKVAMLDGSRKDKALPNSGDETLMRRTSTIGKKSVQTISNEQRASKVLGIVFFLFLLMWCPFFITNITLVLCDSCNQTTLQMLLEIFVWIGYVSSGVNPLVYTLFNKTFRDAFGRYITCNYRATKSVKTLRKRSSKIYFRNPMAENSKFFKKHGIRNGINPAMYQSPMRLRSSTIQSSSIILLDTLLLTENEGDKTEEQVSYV

SMILES | % of Total Human [1] [%] | % of Total Human_LM [2] [%] | % of Total Rat [3] [%] | also measured
CCNC(=O)[C@@H]1C=C2c3cccc4[nH]c(Br)c(c34)C[C@H]2NC1 [Compound M359] | 1.0 | 1.2 | 0.7 | 
CN1C[C@H](C(N)=O)C=C2c3cccc4[nH]c(Br)c(c34)C[C@H]21 [Compound M345] | 0.4 | 0.2 | 0.1 | 
CCN(CC)C(=O)[C@@H]1C=C2c3cccc4[nH]c(Br)c(c34)C[C@H]2NC1 [Compound M387] | 3.0 | 3.0 | 2.5 | 
CCNC(=O)[C@@H]1C=C2c3cccc4[nH]c(Br)c(c34)C[C@H]2N(C)C1 [Compound M373] | 10.3 | 19.6 | 7.7 | 
CCN(CC)C(=O)[C@@H]1C=C2c3cccc4[nH]c(O)c(c34)C[C@H]2N(C)C1 [Compound M339] | 4.8 | 4.4 | 3.9 | 
CN1C[C@H](C(=O)O)C=C2c3cccc4[nH]c(Br)c(c34)C[C@H]21 [Compound M346] | 14.3 | 0.9 | 0.5 | 
CCN(CC)C(=O)[C@@H]1C=C2c3cccc4[nH]c(Br)c(c34)C[C@H]2N(C)C1 [Compound 2BL, 2-bromo-lysergic acid diethylamide] | 41.3 | 30.0 | 18.5 | AUC(0-t) [4]: 0.93 ± 0.1 µM·h; Cmax [4]: 890 ± 60 nM; hallucinations in patients [5]: no hallucinations reported; Tmax ([6]; oral): ~2 h; AUC(0-t) ([6]; female): 340 ± 38 ng·h/mL; Cmax ([6]; female): 340 ± 58 ng/mL; AUC(0-t) ([6]; male): 300 ± 40 ng·h/mL; Cmax ([6]; male): 280 ± 8.8 ng/mL; activity at 5-HT2B receptor [7]: antagonist; activity at 5-HT2A receptor [8]: partial agonism
